Here are results for 2 substances from patent publication US20150190461A1, “DOSING INSTRUCTIONS FOR ENDOTOXIN-BINDING LIPOPEPTIDES” (priority 2012, published 2015).

One series relates to blood cells. Description: Cytokine batch (batch test II): cytokine release by blood cells in LPS-spiked plasma. In kind it is cell-based. The conditions noted are these: PMB 250, 500, 1000 ng/ml; plasma spiked with LPS (E. coli); 4 hours of incubation. The procedure:
Also to be studied is to what extent this endotoxin elimination has the consequence of inhibiting the release of cytokines (batch test II).
A blood donation was taken in 9 blood-donation tubes (9 ml each) and spiked with 5 IU heparin. The plasma was centrifuges, and the cell pellet as incubated on the rolling mixer. The plasma was spiked with LPS and used for batch test I: […]

For series [1] the following is noted: human, in vivo; cited from earlier work.

For the substance polymyxin B [PMB], in the series with blood cells, the “inhibition of cytokine release (TNF-alpha, IL-1beta, IL-6, IL-8) by the blood cells” value is on record as “strong inhibition” and the “inhibition of the key mediator TNF-alpha” value is on record as “especially pronounced”.

Turning to colistin, in series [1], the serum half-life was 6 to 7.4 h.
